Source: ChEMBL document CHEMBL1201862, “PubChem BioAssay data set” (2004)
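Cultured in 96-well plates, cells were exposed to test compound for 48 hours across five concentrations. At the GI50, growth is halved.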 The source made the active and inactive calls. No stated cut-off is given here; in the data, active = GI50 up to about 1.1 µM and inactive = higher.

How the values were obtained:
Experiment in all cases: DTP human tumour cell line panel, 48 h
DMS-114 = system: DMS-114
KM-20L2 = system: KM-20L2
HOP-18 = system: HOP-18
SNB-78 = system: SNB-78
XF498 = system: XF498
RXF 631 = system: RXF 631
M19-MEL = system: M19-MEL
BT-549 = system: BT-549
LXFL 529 = system: LXFL 529

| SMILES | GI50 (DMS-114) | GI50 (KM-20L2) | GI50 (HOP-18) | GI50 (SNB-78) | GI50 (XF498) | GI50 (RXF 631) | GI50 (M19-MEL) | GI50 (BT-549) | GI50 (LXFL 529) |
| --- | --- | --- | --- | --- | --- | --- | --- | --- | --- |
| C/C(=N\N=C(/S)N1CC2CCC(CC2)C1)c1cccc[n+]1[O-] | 1.35 µM (inactive) | 1.52 µM (inactive) | 30.3 µM (inactive) | 8.34 µM (inactive) | 21.4 µM (inactive) | 3.45 µM (inactive) | 3.58 µM (inactive) | – | – |
| CC(C)=CCc1c(O)cc2oc(-c3ccc(O)cc3O)cc(=O)c2c1O | – | – | – | – | – | – | – | 29.8 µM (inactive) | – |
| O=C(/C=C/c1cccc([N+](=O)[O-])c1)c1cccnc1 | 22.6 µM (inactive) | 27.7 µM (inactive) | 2.06 µM (inactive) | 41.2 µM (inactive) | 35.8 µM (inactive) | – | 31.2 µM (inactive) | – | 21 µM (inactive) |
| Cc1ccccc1N(CCC#N)C1=NN(C(=O)CC(=O)Nc2ccc(Cl)cc2)C(c2ccccc2)C1 (stereo unspecified) | > 100 µM (inactive) | > 100 µM (inactive) | > 100 µM (inactive) | > 100 µM (inactive) | – | > 100 µM (inactive) | > 100 µM (inactive) | – | > 100 µM (inactive) |
| Cn1cnc([N+](=O)[O-])c1Sc1nc2cccnc2s1 | 14.7 µM (inactive) | 16.9 µM (inactive) | – | 46.9 µM (inactive) | 21 µM (inactive) | 14.6 µM (inactive) | 14.9 µM (inactive) | – | 12.4 µM (inactive) |
| CN(C)C1(C#N)CCC2(CC1)OCCO2 | – | > 100 µM (inactive) | – | > 100 µM (inactive) | – | – | > 100 µM (inactive) | – | – |
| CCc1cccc(C(C)CC)c1NC(=O)CC1C(=O)Nc2ccccc2[S+]1[O-] (stereo unspecified) | 28.2 µM (inactive) | 61.2 µM (inactive) | – | 28.8 µM (inactive) | – | 36.1 µM (inactive) | 32.8 µM (inactive) | – | 31.4 µM (inactive) |
| O=C(CNc1nncs1)NO | 54.3 µM (inactive) | > 100 µM (inactive) | > 100 µM (inactive) | > 100 µM (inactive) | – | – | > 100 µM (inactive) | – | > 100 µM (inactive) |
| O=c1cccccc1NCCCCNc1cccccc1=O | 31.3 µM (inactive) | > 100 µM (inactive) | > 100 µM (inactive) | > 100 µM (inactive) | – | > 100 µM (inactive) | 83.2 µM (inactive) | – | 48.8 µM (inactive) |
| Cc1c(C(=O)Nc2ccc(Cl)cc2)nc(N)nc1-c1cccc(Cl)c1 | 94.4 µM (inactive) | 45.4 µM (inactive) | > 100 µM (inactive) | > 100 µM (inactive) | – | 52.1 µM (inactive) | > 100 µM (inactive) | – | > 10 µM (inactive) |
| COC[C@@H](/N=C/N1CCc2cc(OC)c(OC)cc2[C@@H]1C)C(C)(C)C | > 100 µM (inactive) | > 100 µM (inactive) | > 100 µM (inactive) | – | > 100 µM (inactive) | > 100 µM (inactive) | > 100 µM (inactive) | – | > 100 µM (inactive) |
| COc1ccc2c(c1)[n+]([O-])c(-c1ccc([N+](=O)[O-])cc1)c(N)[n+]2[O-] | 21.4 µM (inactive) | 49.5 µM (inactive) | > 100 µM (inactive) | 96.4 µM (inactive) | – | > 100 µM (inactive) | – | – | 39.5 µM (inactive) |
| Nc1c(Cl)ncnc1NCCCCCCCCCCCCNc1ncnc(Cl)c1N | < 0.01 µM (active) | 7.11 µM (inactive) | 5.48 µM (inactive) | 0.137 µM (active) | 0.593 µM (active) | 1.94 µM (inactive) | 2.59 µM (inactive) | – | 0.218 µM (active) |
| CC(=O)OCC(OC(C)=O)C(OC(C)=O)C(OC(C)=O)C(=O)CNn1c(-c2ccccc2Cl)nc2ccc(Br)cc2c1=O (stereo unspecified) | 30.4 µM (inactive) | > 100 µM (inactive) | – | 65.6 µM (inactive) | 15.5 µM (inactive) | – | > 100 µM (inactive) | – | 36.9 µM (inactive) |
| CN[C@H](C)[C@@H](OC)c1ccccc1 | > 100 µM (inactive) | > 100 µM (inactive) | > 100 µM (inactive) | > 100 µM (inactive) | > 100 µM (inactive) | – | > 100 µM (inactive) | – | > 100 µM (inactive) |
| CC(=O)NC(CCCCNCc1ccccc1)C(=O)NCc1ccccc1 (stereo unspecified) | > 100 µM (inactive) | > 100 µM (inactive) | – | > 100 µM (inactive) | > 100 µM (inactive) | – | > 100 µM (inactive) | – | > 100 µM (inactive) |
| NCc1ccc(O)c(O)c1O | 18.8 µM (inactive) | 30.2 µM (inactive) | > 56.8 µM (inactive) | > 65.9 µM (inactive) | 26.9 µM (inactive) | – | 12.8 µM (inactive) | 18.4 µM (inactive) | 16.8 µM (inactive) |
